Laboratory results reported in patent US20120064125A1 (priority 2009, published 2012).

Tests used:
Format in all cases: cell-based, Staphylococcus aureus
[1] = system: USA300 strain LAC biofilm; test: USA300 biofilm dispersal from a titanium surface (flow cell, CLSM); conditions: AIP-I ~50 nM
Protocol: FIGS. 6A-B. USA300 biofilm dispersal from a titanium surface. Biofilms of LAC with plasmid pCM12 were grown for two days in the modified flow cell chamber (FIG. 2) that contains titanium as a substratum. AIP-I was added to the flow cell media at ˜50 nM final concentration, and biofilm integrity was monitored for another 20 hr. Each image depiction is a reconstruction of a z series of CLSM images, and each side of a grid square is 20 μm. (FIG. 6A) Wild-type LAC with pCM12. (FIG. 6B) LAC ΔAgr::Tet mutant with pCM12.
Biofilm Assays. For biofilms grown on glass, flow cell biofilm growth, confocal scanning laser microscopy (CSLM), and computer image analysis were performed as previously described (Boles and Horswill, 2008). To monitor biofilm growth, LAC was transformed with GFP-expressing plasmid pALC2084 (Bateman et al., 2001), and the growth medium was supplemented with 1 μg/ml Cam and 20 ng/ml anhydrotetracycline for plasmid maintenance and induction of GFP expression. […] For biofilm dispersal tests, AIP type I (AIP-I) was synthesized and quantified using an intein system (Malone et al., 2007), and biofilm dispersal tests were performed as previously described (Boles and Horswill, 2008). […] LAC biofilm integrity was monitored at 6 hr and 22 hr, and COMSTAT analysis was performed to quantify the biofilm properties. […]

[2] = system: USA300 strain LAC biofilm; test: USA300 biofilm dispersal from a glass surface (flow cell, CLSM); conditions: AIP-I ~50 nM
Protocol: FIGS. 1A-B. USA300 biofilm dispersal from a glass surface. USA300 strain LAC with plasmid pALC2084 was inoculated into a once-through flow cell with a glass substratum and incubated for two days. AIP-I (˜50 nM) was added to the flow cell media and biofilm integrity was monitored for 20 hr. For each image depiction, a z series of images was obtained with CLSM and reconstructed with Volocity software, and each side of a grid square is 20 μm in the image reconstruction. (FIG. 1A) Wild-type LAC with pALC2084. (FIG. 1B) LAC ΔAgr:Tet mutant with pALC2084.
Biofilm Assays. […] For biofilm dispersal tests, AIP type I (AIP-I) was synthesized and quantified using an intein system (Malone et al., 2007), and biofilm dispersal tests were performed as previously described (Boles and Horswill, 2008). […] LAC biofilm integrity was monitored at 6 hr and 22 hr, and COMSTAT analysis was performed to quantify the biofilm properties.
USA300 has a functional biofilm dispersal pathway. […] Biofilm integrity was monitored using confocal laser scanning microscopy (CLSM), and as anticipated, the LAC biofilm appeared as a confluent layer ˜20 μm thick (FIG. 1A). […] In scanning the glass substratum, remaining live cells could not be detected, indicating the biomass completely dispersed from the surface.

USA300 strain LAC = conditions: 48 hr titanium biofilm, AIP ~50 nM for 24 hr, effluent cells tested with rifampicin and levofloxacin
Protocol: In parallel, biomass was detached (white triangles, dashed-line error bars) from the coupons with AIP-I addition and collected from flow cell effluents. The detached biomass was treated with identical rifampicin/levofloxacin concentrations and surviving CFU's determined.
Antibiotic susceptibility. […] To determine antibiotic resistance of dispersed biofilms, AIP was added (˜50 nM) to the media reservoir after 48 hr growth, and the biofilm effluent was collected on ice for 24 hr. Cell concentration was adjusted to the equivalent of one coupon of biomass, or ˜1×10^8 CFU. Cells were treated as described above with the exception that cells were pelleted by centrifugation at 13,000 RPM and then resuspended in 1 mL PBS before sonication.
To test antibiotic susceptibility of dispersed cells, LAC biofilms were grown for 48 hr on titanium, exposed to AIP (˜50 nM) for 24 hr, and detached cells were collected from the effluent.

[3] = LAC ΔAgr::Tet mutant (Agr inactivated), 20 hr

“YSTCDFIM (thiolactone bridge; Synechocystis PCC6803) [AIP-I, made with an intein system]” was tested, and the “biofilm response to AIP-I” value [1, 3] was “did not respond to AIP-I treatment”, the “biofilm dispersal (biomass)” value ([1]; wild-type LAC, two day biofilm, 20 hr post addition) was “complete dispersal of the biomass” and the “biofilm integrity after signal addition” value [2, 3] was “no effect on the biofilm integrity”. The “biofilm integrity (biomass) after signal addition” value ([2]; wild-type LAC, 48 hr biofilm, 20 hr after addition) was “complete loss of biomass” and the “antibiotic susceptibility of cells after AIP-mediated dispersal” value (USA300 strain LAC) was “significantly more antibiotic susceptible”.
